How the values were obtained:
[1] = cited from earlier work; for single-dose oral LD50: from Patty's Industrial Hygiene and Toxicology, 1978; for toxicity ranking / hazard in words: based on laboratory test data, direct ingestion
[2] = Swelling test, Louisiana gumbo shale; conditions: gumbo shale pellets
Text: The swelling inhibition effects of drilling fluids of this invention on water-sensitive shales have been evaluated by performing swelling tests using a Computer-Aided Swellmeter developed by M-I Drilling Fluids L.L.C. This device is described in, Lee, John, "Swellmeter Analysis," M-I® TECH-NEWS, November 1989. Pellets with 1 inch diameter, prepared by compressing pulverized water-sensitive shales under controlled loads, are placed in specially designed holders and allowed to be in direct contact with test fluids. The pellets are allowed to adsorb test fluids and swell for a period of time ranging from about 60 to 120 hours in the test fluids. Volume expansions of the pellets are recorded by using liner variable differential transformers. The volume expansions of the pellets and slopes of the swelling curves at the end of the test are used to evaluate the water adsorption and swelling inhibition of the test fluids.
The swelling tests were performed according to the test procedures given above. The argillaceous rock used for the tests was a "gumbo shale" obtained from offshore Louisiana. The gumbo shale was pulverized and pressed into 1 inch diameter pellets under 10,000 pounds of force for 5 minutes. The volume expansions of the pellets and the swelling rates calculated from swelling data obtained between 55 and 60 hours of the test are shown in Table 2. […]

[3] = U.S. Pat. No. 4,830,765, cited from earlier work; for swelling of bentonite: 100% glycol fluid; for concentration needed to provide appreciable swelling inhibition on bentonite: in a fluid phase

Compound: Dipropylene Glycol
- single-dose oral LD50 [1]: ~ 15 gm/KG

Compound: OCCOCCOCCO [Triethylene Glycol]
- single-dose oral LD50 [1]: 16-22 gm/KG

Compound: OCCO [Ethylene Glycol]
- toxicity ranking / hazard in words [1]: most toxic
- single-dose oral LD50 [1]: 6-12 gm/KG

Compound: C[N+](C)(C)CCO.[Cl-] [Choline Chloride, choline chloride]
- swelling inhibition in words [2]: more effective than the inorganic cationic material

Compound: Butylene Glycol
- toxicity ranking / hazard in words [1]: least toxic
- single-dose oral LD50 [1]: 23-30 gm/KG

Compound: CC(O)CO (stereo not drawn) [Propylene Glycol]
- swelling of bentonite [3]: completely prevented
- concentration needed to provide appreciable swelling inhibition on bentonite [3]: ≥ 50 % by weight
- toxicity ranking / hazard in words [1]: least toxic
- single-dose oral LD50 [1]: 21-34 gm/KG

Compound: OCCOCCO [Diethylene Glycol]
- single-dose oral LD50 [1]: 16-21 gm/KG

Compound: OC[C@@H](O)[C@@H](O)[C@H](O)[C@@H](O)CO [sorbitol]
- concentration needed to provide appreciable swelling inhibition on bentonite [3]: ≥ 50 % by weight

Compound: OCC(O)CO [glycerin]
- concentration needed to provide appreciable swelling inhibition on bentonite [3]: ≥ 50 % by weight

Compound: CC(O)COC(C)COC(C)CO (stereo not drawn) [Tripropylene Glycol]
- swelling of bentonite [3]: completely prevented
